Source: ChEMBL document CHEMBL4190196, “Kohamamides A, B, and C, Cyclic Depsipeptides from an Okeania sp. Marine Cyanobacterium” (J Nat Prod, 2017)
*1 amine or outer side, *2 acyl side, *3 side chain or, on linkers, in order; H or OH if unused. Where a SMILES comes first, the peptide text is derived from it. Bridges are numbered along the chain shown (N, C = ends). [ ]: non-standard residue; d: D form. X1 = C#CCCC[C@H](O[*:2])C(C)(C)C(=O)[*:1]; X2 = C=CCCC[C@H](O[*:2])C(C)(C)C(=O)[*:1]; X3 = CCCCC[C@H](O[*:2])C(C)(C)C(=O)[*:1]; Hmpa(2S,3S) = CC[C@H](C)[C@H](O)C(=O)O; NMeV = CN[C@H](C(=O)O)C(C)C

Experiments:
HeLa = assay: Growth inhibition of human HeLa cells after 72 hrs by MTT assay; type: functional, cell-based
HL-60 = assay: Growth inhibition of human HL60 cells after 72 hrs by MTT assay; type: functional, cell-based; details: HL-60, 72 h

IC50 (HeLa) [µM]	IC50 (HL-60) [µM]	Structure (SMILES)
23	6	C=CCCC[C@@H]1OC(=O)[C@H](C)NC(=O)[C@H](CC(C)C)NC(=O)[C@@H]2CCCN2C(=O)[C@H]([C@@H](C)CC)OC(=O)[C@H](C(C)C)N(C)C(=O)[C@H](C(C)C)NC(=O)C1(C)C (V[NMeV][Hmpa(2S,3S)]PLA; linker N-C via X2)
18	11	CCCCC[C@@H]1OC(=O)[C@H](C)NC(=O)[C@H](CC(C)C)NC(=O)[C@@H]2CCCN2C(=O)[C@H]([C@@H](C)CC)OC(=O)[C@H](C(C)C)N(C)C(=O)[C@H](C(C)C)NC(=O)C1(C)C (V[NMeV][Hmpa(2S,3S)]PLA; linker N-C via X3)
29	19	C#CCCC[C@@H]1OC(=O)[C@H](C)NC(=O)[C@H](CC(C)C)NC(=O)[C@@H]2CCCN2C(=O)[C@H]([C@@H](C)CC)OC(=O)[C@H](C(C)C)N(C)C(=O)[C@H](C(C)C)NC(=O)C1(C)C (V[NMeV][Hmpa(2S,3S)]PLA; linker N-C via X1)
